According to PMC10331583, “Control of fibrosis with enhanced safety via asymmetric inhibition of prolyl‐tRNA synthetase 1” (EMBO Molecular Medicine, 2023):
Where “and” joins values, the source holds several entries; their conditions need not be identical. Equal values may be shown once. Read-outs that look alike come from different tables or passages of the source.

Assays:
[1] = target: TNT Quick Coupled Transcription/Translation System (luciferase synthesis); assay type: biochemical; conditions: log(inhibitor) vs. response, variable slope (four parameters); unit from head concentration (nM); read-out: TNT-luciferase IC50 (best-fit value)
WI‐26 VA4 cells [2] = experiment: Collagen ELISA (secreted pro‐collagen I)
Description: WI‐26 VA4 cells were seeded at 3.5 × 10^4 cells/well on 24 well plates. After 24 h, the cells were starved of serum for 6 h. Then, the cells were incubated with the indicated concentrations of compounds in the presence of TGF‐β (2 ng/ml) (R&D systems, 240‐B‐002) for 72 h. The supernatant of the cells was collected and centrifuged at 500 g for 5 min to remove cell debris. Then, the level of pro‐collagen I in the supernatant was determined using Human Pro‐collagen I alpha 1 DuoSet ELISA (R&D systems, DY6220‐05) and DuoSet ELISA Ancillary Reagent Kit 2 (R&D systems, DY008) following the manufacturer's instructions.

WI‐26 VA4 cells [3] = experiment: CellTiter‐Glo assay (cytotoxicity); conditions: for activity at 0.003 µM / activity at 0.01 µM / activity at 0.03 µM / activity at 0.1 µM / activity at 0.3 µM / activity at 1 µM / activity at 3 µM / activity at 10 µM / activity at 30 µM / activity at 100 µM: Homo sapiens
Description: (§1) After 24 h, the cells were incubated with various concentrations of compounds for 48 h. The level of ATP as a measure of cell viability was determined using a CellTiter‐Glo® luminescent cell viability assay kit (Promega, G7571) following the manufacturer's instructions.
(§2) WI‐26 VA4 cells were seeded at 1.2 × 10^4 cells/well in 96‐well white plates. After 24 h, the cells were incubated with the indicated concentrations of compounds for 72 h. The viability was determined as described above.

[4] = CellTiter‐Glo assay (cytotoxicity); conditions: human, WI-26 VA4 cells
Description: as §1, §2

[5] = log(inhibitor) vs. response, variable slope (four parameters), concentration in nM

For `Cc1c(Cl)ccc2c1ncn2CC(=O)C[C@H]1NCCC[C@@H]1O` [DWN11748], the IC50 [1] was 2550 nM, the “Collagen, % of control (single replicates per experiment)” value (WI‐26 VA4 cells [2]; 3 nM, 0.003 µM) was 95.16 % of control and 105.95 % of control and 100.28 % of control and 91.81 % of control and 92.46 % of control and 107.08 % of control and 97.10 % of control and 100.74 % of control and 124.62 % of control and 100.86 % of control and the “Collagen, % of control (single replicates per experiment)” value (WI‐26 VA4 cells [2]; 100 nM, 0.1 µM) was 102.93 % of control and 54.86 % of control and 79.76 % of control and 92.40 % of control and 101.85 % of control and 87.72 % of control and 81.93 % of control and 104.58 % of control and 120.36 % of control. The “CC50/collagen IC50” value (WI‐26 VA4 cells [2]; Fig 5E) was 5.39, the IC50 (WI‐26 VA4 cells [2]; Homo sapiens, WI26VA4, read-out: Collagen IC50 (best-fit value), log(inhibitor) vs. response, variable slope (four parameters) (converted)) was 267 nM and the activity at 0.03 µM (WI‐26 VA4 cells [2]; Homo sapiens, WI26VA4, read-out: Collagen, % of control (single replicates per experiment), 30 nM) was 104%. The activity at 0.3 µM (WI‐26 VA4 cells [2]; Homo sapiens, WI26VA4, read-out: Collagen, % of control (single replicates per experiment), 300 nM) was 46.5%, the activity at 1 µM (WI‐26 VA4 cells [2]; Homo sapiens, WI26VA4, read-out: Collagen, % of control (single replicates per experiment), 1000 nM) was 7.82% and the activity at 0.003 µM (WI‐26 VA4 cells [2]; Homo sapiens, WI26VA4, read-out: Collagen, % of control, average, 3 nM, average) was 102%. For the same compound, the activity at 0.01 µM (WI‐26 VA4 cells [2]; Homo sapiens, WI26VA4, read-out: Collagen, % of control, average, 10 nM, average) was 100%, the activity at 0.03 µM (WI‐26 VA4 cells [2]; Homo sapiens, WI26VA4, read-out: Collagen, % of control, average, 30 nM, average) was 97.7% and the activity at 0.1 µM (WI‐26 VA4 cells [2]; Homo sapiens, WI26VA4, read-out: Collagen, % of control, average, 100 nM, average) was 88.9%. For the same compound, the activity at 0.3 µM (WI‐26 VA4 cells [2]; Homo sapiens, WI26VA4, read-out: Collagen, % of control, average, 300 nM, average) was 45.3%, the activity at 1 µM (WI‐26 VA4 cells [2]; Homo sapiens, WI26VA4, read-out: Collagen, % of control, average, 1000 nM, average) was 9.08% and the activity at 3 µM (WI‐26 VA4 cells [2]; Homo sapiens, WI26VA4, read-out: Collagen, % of control, average, 3000 nM, average) was 2.58%. The activity at 10 µM (WI‐26 VA4 cells [2]; Homo sapiens, WI26VA4, read-out: Collagen, % of control, average, 10000 nM, average) was 2.33%, the “Collagen HillSlope (best-fit value)” value (WI‐26 VA4 cells [2]; log(inhibitor) vs. response, variable slope (four parameters)) was -2.011 and the “Collagen LogIC50 (best-fit value)” value (WI‐26 VA4 cells [2]; [5]) was 2.427. The “Relative (CC50)/(collagen IC50)” value (WI‐26 VA4 cells [2]; relative to HF, Fig 5E) was 1.61, the activity at 0.003 µM (WI‐26 VA4 cells [3]; WI26VA4, read-out: CellTiter-Glo % of control, 3 nM, Experiment #1, replicates) was 99.9% and the activity at 0.003 µM (WI‐26 VA4 cells [3]; WI26VA4, read-out: CellTiter-Glo % of control, 3 nM, Experiment #2, replicates) was 90.9%. It also gave an activity at 0.01 µM (WI‐26 VA4 cells [3]; WI26VA4, read-out: CellTiter-Glo % of control, 10 nM, Experiment #1, replicates) of 90.9%, an activity at 0.01 µM (WI‐26 VA4 cells [3]; WI26VA4, read-out: CellTiter-Glo % of control, 10 nM, Experiment #2, replicates) of 98.9% and an activity at 0.03 µM (WI‐26 VA4 cells [3]; WI26VA4, read-out: CellTiter-Glo % of control, 30 nM, Experiment #1, replicates) of 91.9%. For the same compound, the activity at 0.03 µM (WI‐26 VA4 cells [3]; WI26VA4, read-out: CellTiter-Glo % of control, 30 nM, Experiment #2, replicates) was 83.2%, the activity at 0.1 µM (WI‐26 VA4 cells [3]; WI26VA4, read-out: CellTiter-Glo % of control, 100 nM, Experiment #1, replicates) was 103% and the activity at 0.1 µM (WI‐26 VA4 cells [3]; WI26VA4, read-out: CellTiter-Glo % of control, 100 nM, Experiment #2, replicates) was 86%. It also gave an activity at 0.3 µM (WI‐26 VA4 cells [3]; WI26VA4, read-out: CellTiter-Glo % of control, 300 nM, Experiment #1, replicates) of 83.6%, an activity at 0.3 µM (WI‐26 VA4 cells [3]; WI26VA4, read-out: CellTiter-Glo % of control, 300 nM, Experiment #2, replicates) of 68.5% and an activity at 1 µM (WI‐26 VA4 cells [3]; WI26VA4, read-out: CellTiter-Glo % of control, 1000 nM, Experiment #1, replicates) of 70.6%. The activity at 1 µM (WI‐26 VA4 cells [3]; WI26VA4, read-out: CellTiter-Glo % of control, 1000 nM, Experiment #2, replicates) was 67.6%, the activity at 3 µM (WI‐26 VA4 cells [3]; WI26VA4, read-out: CellTiter-Glo % of control, 3000 nM, Experiment #1, replicates) was 29.5% and the activity at 3 µM (WI‐26 VA4 cells [3]; WI26VA4, read-out: CellTiter-Glo % of control, 3000 nM, Experiment #2, replicates) was 29.4%. For the same compound, the activity at 10 µM (WI‐26 VA4 cells [3]; WI26VA4, read-out: CellTiter-Glo % of control, 10000 nM, Experiment #1, replicates) was 30.3%, the activity at 10 µM (WI‐26 VA4 cells [3]; WI26VA4, read-out: CellTiter-Glo % of control, 10000 nM, Experiment #2, replicates) was 20.9% and the activity at 30 µM (WI‐26 VA4 cells [3]; WI26VA4, read-out: CellTiter-Glo % of control, 30000 nM, Experiment #1, replicates) was 18.8%. For the same compound, the activity at 30 µM (WI‐26 VA4 cells [3]; WI26VA4, read-out: CellTiter-Glo % of control, 30000 nM, Experiment #2, replicates) was 10.1%, the activity at 100 µM (WI‐26 VA4 cells [3]; WI26VA4, read-out: CellTiter-Glo % of control, 100000 nM, Experiment #1, replicates) was 0.73% and the activity at 100 µM (WI‐26 VA4 cells [3]; WI26VA4, read-out: CellTiter-Glo % of control, 100000 nM, Experiment #2, replicates) was 0.58%. The activity at 0.003 µM (WI‐26 VA4 cells [3]; WI26VA4, read-out: CellTiter-Glo % of control, average, 3 nM, average) was 102%, the activity at 0.01 µM (WI‐26 VA4 cells [3]; WI26VA4, read-out: CellTiter-Glo % of control, average, 10 nM, average) was 96.5% and the activity at 0.03 µM (WI‐26 VA4 cells [3]; WI26VA4, read-out: CellTiter-Glo % of control, average, 30 nM, average) was 91.9%. It also gave an activity at 0.1 µM (WI‐26 VA4 cells [3]; WI26VA4, read-out: CellTiter-Glo % of control, average, 100 nM, average) of 94.6%, an activity at 0.3 µM (WI‐26 VA4 cells [3]; WI26VA4, read-out: CellTiter-Glo % of control, average, 300 nM, average) of 75.5% and an activity at 1 µM (WI‐26 VA4 cells [3]; WI26VA4, read-out: CellTiter-Glo % of control, average, 1000 nM, average) of 63.5%. For the same compound, the activity at 3 µM (WI‐26 VA4 cells [3]; WI26VA4, read-out: CellTiter-Glo % of control, average, 3000 nM, average) was 27.5%, the activity at 10 µM (WI‐26 VA4 cells [3]; WI26VA4, read-out: CellTiter-Glo % of control, average, 10000 nM, average) was 25.4% and the activity at 30 µM (WI‐26 VA4 cells [3]; WI26VA4, read-out: CellTiter-Glo % of control, average, 30000 nM, average) was 13.7%. For the same compound, the activity at 100 µM (WI‐26 VA4 cells [3]; WI26VA4, read-out: CellTiter-Glo % of control, average, 100000 nM, average) was 0.5%, the “CellTiter-Glo LogIC50 (best-fit value)” value (WI‐26 VA4 cells [3]; [5]) was 3.159 and the CC50 at 72 h [4] was 1440 nM.
